Laboratory results: publication PMC3460366, “Synthesis and Antibacterial Evaluation of a New Series of N-Alkyl-2-alkynyl/(E)-alkenyl-4-(1H)-quinolones” (Molecules, 2012)
≈ marks a conversion by molar mass, not a printed value. Where “and” joins values, the source holds several entries; their conditions need not be identical. Equal values may be shown once. Read-outs that look alike come from different tables or passages of the source.

Legend:
[1] = target: T1, M. tuberculosis MurE ligase (Mycobacterium tuberculosis, UniProt P9WJL3); set-up: method as in PMID 21622974; conditions: positive control; read-out: IC50 Mtb MurE; cited from earlier work
T1 construct: made in house; host or cells: E. coli BL21(DE3)pLysS
T1 sequence (P9WJL3 whole entry): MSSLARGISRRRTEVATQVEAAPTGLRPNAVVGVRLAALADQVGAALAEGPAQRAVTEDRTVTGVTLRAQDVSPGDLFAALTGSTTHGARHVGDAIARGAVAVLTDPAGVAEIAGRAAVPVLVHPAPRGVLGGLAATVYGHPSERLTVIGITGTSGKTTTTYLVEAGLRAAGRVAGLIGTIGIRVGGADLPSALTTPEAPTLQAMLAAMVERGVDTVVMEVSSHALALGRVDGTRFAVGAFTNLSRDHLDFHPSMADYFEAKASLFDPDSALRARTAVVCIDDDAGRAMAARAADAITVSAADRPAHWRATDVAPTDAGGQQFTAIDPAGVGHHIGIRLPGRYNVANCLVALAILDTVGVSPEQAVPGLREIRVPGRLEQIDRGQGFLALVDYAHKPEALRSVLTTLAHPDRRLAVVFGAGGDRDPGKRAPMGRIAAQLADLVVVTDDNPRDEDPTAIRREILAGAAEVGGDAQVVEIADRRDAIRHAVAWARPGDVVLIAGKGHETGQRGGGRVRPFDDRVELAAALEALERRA

[2] = tested on: M. smegmatis (ATCC 14468); test: Microtiter broth dilution MIC against M. smegmatis (ATCC 14468); type: cell-based; conditions: Mycolicibacterium smegmatis, ATCC14468, 72 h, 37 °C, MTT
[3] = tested on: M. fortuitum (ATCC 6841); test: Broth dilution MIC against M. fortuitum; type: cell-based; conditions: Mycolicibacterium fortuitum, ATCC6841, 72 h
[4] = tested on: M. phlei (ATCC 11758); test: Broth dilution MIC against M. phlei; type: cell-based; conditions: Mycolicibacterium phlei, ATCC11758, 72 h
[5] = tested on: M. bovis BCG (ATCC 35734); test: microbe, parasite or virus in culture; type: cell-based; conditions: Mycobacterium tuberculosis variant bovis BCG, 336 h, read-out: MIC M. bovis BCG
[6] = tested on: S. aureus EMRSA-15; test: Broth dilution MIC against EMRSA-15; type: cell-based; conditions: Staphylococcus aureus, EMRSA15, 18 h
[7] = tested on: S. aureus EMRSA-16; test: Broth dilution MIC against EMRSA-16; type: cell-based; conditions: Staphylococcus aureus, EMRSA16, 18 h
[8] = target: T1, M. tuberculosis MurE ligase; test: M. tuberculosis MurE inhibition assay (phosphate colorimetric detection); type: biochemical; conditions: tested at 1000, 300, 100 and 30 µM; IC50 from plot of percent inhibition vs. concentration; read-out: IC50 Mtb MurE
[9] = tested on: human diploid embryonic lung cell line MRC-5; test: XTT cytotoxicity assay on MRC-5 cells; type: cell-based; conditions: for Metabolic active MRC-5 cells (%): XTT; for toxicity to MRC-5 cell line (in words): at / up to 100 µM
Method: In order to assess the cytotoxicity of these novel quinolone derivatives, the effect on the viability of a human lung fibroblast cell line MRC-5, was measured using XTT proliferation assay. […] In addition, the position of the triple bond in the side chain seems to have a significant influence on cytotoxcity which is increased in compounds with a triple bond more distant to the quinolone nucleus. This can be concluded by comparing results of 8l, 8n, 8p, and 8r having similar antimycobacterial activity on M. smegmatis but different cytotoxcity depending on triple bond position.
The cytotoxic activity of the synthetic compounds was determined by means of an XTT Cell Proliferation Kit II (Roche Diagnostics, Mannheim, Germany) using the human diploid embryonic lung cell line MRC-5 [11]. The quinolone derivatives were tested at concentrations of 100, 60, 30 and 10 µM in triplicate and the percentage of viable cells at each concentration was determined by comparing with the control.

[10] = tested on: EMRSA-15 and -16; test: Broth dilution MIC against epidemic MRSA strains; type: cell-based, S. aureus; conditions: Staphylococcus aureus, range over both strains and the compounds named
[11] = tested on: M. smegmatis mc^2155; test: Broth dilution MIC against M. smegmatis mc^2155; type: cell-based; conditions: Mycolicibacterium smegmatis, 72 h

SMILES | IC50 [1] [µM] | MIC [2] | MIC [3] | MIC [4] | MIC [5] | MIC [6] | MIC [7] | IC50 [8] [µM] | Metabolic active MRC-5 cells (%) ([9]; 10 µM) | Metabolic active MRC-5 cells (%) ([9]; 30 µM) | Metabolic active MRC-5 cells (%) ([9]; 60 µM) | Metabolic active MRC-5 cells (%) ([9]; 100 µM) | MIC [10] | MIC [11] | toxicity to MRC-5 cell line (in words) [9] | melting point [°C]
CCCCCCCC/C=C\CCCCc1cc(=O)c2ccccc2n1C [1-Methyl-2-[(5Z)-tetradecenyl]-4(1H)-quinolone] | 36 | – | – | – | – | – | – | – | – | – | – | – | – | – | – | –
CCCCCCCCC#CCCc1cc(=O)c2ccccc2n1CCC [Compound 8l, 1-(n-Propyl)-2-(3'-dodecynyl)-4(1H)-quinolone] | – | 1 µg/mL and 2.8 µM | 2 µg/mL and 5.7 µM | 4 µg/mL and 11.4 µM | 25 µg/mL and 71.2 µM | 2 µg/mL and 5.7 µM | 8 µg/mL and 22.8 µM | 263 | 100 ± 0.31 | 99.1 ± 2.32 | 69.1 ± 8.04 | 9.0 ± 6.85 | 2 µg/mL to 8 µg/mL and 5.5 µM to 22.8 µM | – | – | –
CCCCCCCCC#CCCc1cc(=O)c2ccccc2n1CCCC [Compound 8m, 1-(n-Butyl)-2-(3'-dodecynyl)-4(1H)-quinolone] | – | 2 µg/mL and 5.5 µM | 2 µg/mL and 5.5 µM | 4 µg/mL and 10.9 µM | 25 µg/mL and 68.5 µM | 2 µg/mL and 5.5 µM | 4 µg/mL and 10.9 µM | 235 | 94.9 ± 3.18 | 89.7 ± 2.46 | 67.5 ± 3.19 | 0.4 ± 0.02 | 2 µg/mL to 8 µg/mL and 5.5 µM to 22.8 µM | 2 µg/mL and 5.5 µM | – | –
CCCCCCCCCCC#Cc1cc(=O)c2ccccc2n1C [Compound 8n, 1-Methyl-2-(1'-dodecynyl)-4(1H)-quinolone] | – | 0.5 µg/mL (≈ 1.55 µM) | 0.5 µg/mL and 1.5 µM | 1 µg/mL and 3.1 µM | 25 µg/mL and 77.4 µM | 2 µg/mL and 6.2 µM | 4 µg/mL and 12.4 µM | 251 | 101 ± 0.85 | 100 ± 0.72 | 100 ± 0.81 | 100 ± 0.82 | 2 µg/mL to 8 µg/mL and 5.5 µM to 22.8 µM | 1 µg/mL and 3.1 µM | devoid of toxicity | –
CCCCCCCCCCC#CCCc1cc(=O)c2ccccc2n1C [Compound 8o, 1-Methyl-2-(3'-tetradecynyl)-4(1H)-quinolone] | – | 2 µg/mL and 5.7 µM | 2 µg/mL and 5.7 µM | 2 µg/mL and 5.7 µM | 25 µg/mL and 71.2 µM | 8 µg/mL and 22.8 µM | 8 µg/mL and 22.8 µM | 774 | 100 ± 0.73 | 97.9 ± 0.88 | 95.8 ± 2.54 | 90.7 ± 3.48 | – | 1 µg/mL and 2.8 µM | – | 43 to 45
CCCCCCCCCCC#CCCc1cc(=O)c2ccccc2n1CCC [Compound 8q, 1-(n-Propyl)-2-(3'-tetradecynyl)-4(1H)-quinolone] | – | 1 µg/mL and 2.6 µM | 2 µg/mL and 5.3 µM | 2 µg/mL and 5.3 µM | 25 µg/mL and 66 µM | 2 µg/mL and 5.3 µM | 128 µg/mL and 338 µM | 200 | 92.7 ± 4.62 | 67.9 ± 2.65 | 19.8 ± 9.85 | 0.2 ± 0.09 | – | 1 µg/mL and 2.6 µM | – | –
CCCCCCCCCCCCC#Cc1cc(=O)c2ccccc2n1C [Compound 8r, 1-Methyl-2-(1′-tetradecynyl)-4(1H)-quinolone] | – | 0.5 µg/mL (≈ 1.42 µM) | 0.5 µg/mL and 1.5 µM | 2 µg/mL and 5.7 µM | 25 µg/mL and 71.2 µM | 16 µg/mL and 45.6 µM | 128 µg/mL and 365 µM | 631 | 99.7 ± 2.03 | 98.1 ± 1.65 | 97.1 ± 1.69 | 95.7 ± 1.14 | – | 1 µg/mL and 2.8 µM | devoid of toxicity | 41 to 43
